Reference: US12599137B2, “Composition for the drying of Tillandsia sp” (priority 2021, dated 2026)

System: Tillandsia sp
Assay: Sampler of 49 cells, each with one specimen of each Tillandsia species, photographic follow-up every 5 days for 30 days
Format: in vivo, Tillandsia aeranthos and Tillandsia recurvata
Text: Next, we proceeded to form a sampler consisting of a base on which a series of wooden slats separated at parallel intervals were placed, to which perpendicular slats were crossed, achieving a plurality of cells for a total of 49 flat cells. One specimen of Tillandsia aeranthos and one of Tillandsia recurvata were placed inside each cell. Each box was designated with a sequential number from No. 1 to No. 49 and a photographic follow-up was taken every 5 days for a total of 30 days.

Row | SMILES | dehydration result of Tillandsia sp, summary in words (conclusions on sampler box tests) | optimum concentration of the active ingredient in water (from Examples 3 to 7, FIG. 1)
1 | Cc1c(C(=O)O)c(O)cc2c1C(=O)c1c(O)c([C@@H]3O[C@H](CO)[C@@H](O)[C@H](O)[C@H]3O)c(O)c(O)c1C2=O [carminic acid] | does not dehydrate | 
2 | O=C([O-])O.[Na+] [sodium bicarbonate] |  | 0.07 g/mL
